System: rat neonatal microglia
Experiment: Short-term microglia cell viability: LDH release
Details: short-term cell viability (90 min)

Structure (SMILES) | LDH50 (concentration that caused 50% release of the total LDH content of microglia cells)
[C-]#[N+][C@@]1(C)CC[C@H]2[C@H]3[C@@H](C(=C)CC[C@H]31)[C@H](CC(=C)C)C[C@@H]2C [Compound 1, 7-isocyano-11(20)-15(16)-amphilectadiene] | >10 µM
[C-]#[N+]C(C)(C)C[C@@H]1C[C@H](C)[C@H]2CC[C@H](C)[C@@]3([N+]#[C-])CCC(=C)[C@@H]1[C@H]23 [Compound 2, (–)-8,15-diisocyano-11(20)-amphilectene] | >10 µM
[C-]#[N+][C@@]12CCC(=C)[C@H]3[C@H](CC(C)(C)NC=O)C[C@H](C)[C@@H](CC[C@@H]1C)[C@@H]32 [Compound 4, 8-isocyano-11(20)-ene-15-amphilectaformamide] | >10 µM
[C-]#[N+][C@@]12CCC(=C)[C@H]3[C@H](CC(C)(C)NC(=O)CN4CCC4=O)C[C@H](C)[C@@H](CC[C@@H]1C)[C@@H]32 [Compound 5, monamphilectine A] | >10 µM
[C-]#[N+]C(C)(C)C[C@@H]1C[C@H](C)[C@H]2CC[C@H](C)[C@@]3([N+]#[C-])CCC(=O)[C@@H]1[C@H]23 [Compound 6, 8,15-diisocyano-11-amphilectone] | >10 µM

Reference: article PMC3272584 (Bioorganic & medicinal chemistry, 2011)
